The EC50 is the concentration at which the effect is half-maximal. As a reminder, the Kd is the free concentration of one partner at which half of the binding sites on the other are occupied at equilibrium, for simple one-to-one binding.

Test [1] concerns the target Replicase polyprotein 1ab (Severe acute respiratory syndrome coronavirus 2) (UniProt P0DTD1). The test is described as follows: Inhibition of wild type recombinant SARS-COV2 main protease expressed in Escherichia coli BL21 (DE3) using DABCYL-KTSAVLQSGFRKME-EDANS-NH2 as fluorogenic substrate at 1.5 to 50 uM preincubated for 10 mins followed by substrate addition by FRET assay. Conditions: dose 1.5-50 µM.

A further test relates to SARS-CoV-2. Briefly: Antiviral activity against SARS-COV2 infected in African green monkey Vero E6 cells assessed as reduction of viral titer by immunofocus assay. The test is classed as functional, organism-based. Conditions: Severe acute respiratory syndrome coronavirus 2, Vero C1008.
For test [2], the target named is T1, Replicase polyprotein 1ab (Severe acute respiratory syndrome coronavirus 2, UniProt P0DTD1). Briefly: Binding affinity to SARS-COV2 main protease assessed as dissociation constant by analytical ultracentrifugation analysis.
Test [3] addresses T1, Replicase polyprotein 1ab. The test is described as follows: Binding affinity to SARS-COV2 main protease assessed as dissociation constant by mass spectrometry analysis.
Test [4] has as its target T1, Replicase polyprotein 1ab. Briefly: Binding affinity to wild type SARS-COV2 main protease expressed in Escherichia coli BL21 (DE3) assessed as dissociation constant by small angle X-ray scattering analysis.

Activity calls are given as the source filed them. The rule behind the calls is not given here.

`CCOc1cc2ncc(C#N)c(Nc3ccc(F)c(Cl)c3)c2cc1NC(=O)/C=C/CN(C)C` [PELITINIB]: in test [1], the inhibition result is “inactive”. For the same compound, the EC50 with SARS-CoV-2 is 1250 nM.
Take `CC(=O)[C@@H]1CSCC(=O)N[C@H](Cc2ccc(O)cc2)C(=O)N[C@@H](CC(C)C)C(=O)N[C@@H](CCC(N)=O)C(=O)N[C@@H](Cc2ccc(O)cc2)C(=O)N[C@@H](C)C(=O)N[C@@H](C(C)C)C(=O)N[C@@H](CC(C)C)C(=O)N[C@@H](CCCNC(=N)N)C(=O)N[C@@H](Cc2c[nH]cn2)C(=O)N[C@@H](CCCCN)C(=O)N[C@@H](CCCNC(=N)N)C(=O)N[C@@H](CCCNC(=N)N)C(=O)N[C@@H](CCC(=O)O)C(=O)C1`: the Kd in test [2] amounted to 2500 nM; in test [3], 140 nM; in test [4], 7000 nM.

Values taken from ChEMBL document CHEMBL5380815, “Probing Ligand Binding Sites on Large Proteins by Nuclear Magnetic Resonance Spectroscopy of Genetically Encoded Non-Canonical Amino Acids” (J Med Chem, 2023).
